{"source": "patent US20100298141A1", "about": "“SUBSTITUTED PYRIDINE N-OXIDE HERBICIDES” (E. I. DU PONT DE NEMOURS AND COMPANY, priority 2007, published 2010)", "key": {"[1]": {"test_system": "barnyardgrass", "assay": "Test A pre-/postemergence greenhouse test", "assay_type": "in vivo, Echinochloa crus-galli", "conditions": "for Plant response rating, Barnyardgrass: 0 to 100 scale where 0 is no effect and 100 is complete control; for Barnyardgrass plant response rating: 0 to 100 scale", "procedure,_shortened": "(§1)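 Pre: directed soil spray on seeded loam/sand. Post: foliar spray, plants 2–10 cm, 1–2 leaf stage, applied concurrently. Vehicle: non-phytotoxic solvent + surfactant. Greenhouse ~10 d; visual injury rating vs untreated controls.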"}, "[2]": {"test_system": "redroot pigweed", "assay": "Test A pre-/postemergence greenhouse test", "assay_type": "in vivo, Amaranthus retroflexus", "conditions": "for Plant response rating, Pigweed: 0 to 100 scale where 0 is no effect and 100 is complete control; for Pigweed plant response rating: 0 to 100 scale", "procedure,_shortened": "as §1"}, "[3]": {"test_system": "velvetleaf", "assay": "Test A pre-/postemergence greenhouse test", "assay_type": "in vivo, Abutilon theophrasti", "conditions": "for Plant response rating, Velvetleaf: 0 to 100 scale where 0 is no effect and 100 is complete control; for Velvetleaf plant response rating: 0 to 100 scale", "procedure,_shortened": "as §1"}, "[4]": {"test_system": "downy brome", "assay": "Test C pre-/postemergence test", "assay_type": "in vivo, Bromus tectorum", "procedure,_shortened": "(§2)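 Compounds in a non-phytotoxic solvent with surfactant applied preemergence to seeded pots and, at the same time, postemergence to plants 2–18 cm tall (1- to 4-leaf stage). Paddy tests: pots flooded to 3 cm, compound applied into the water, depth held throughout.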"}, "[5]": {"test_system": "green foxtail", "assay": "Test C pre-/postemergence test", "assay_type": "in vivo, Setaria viridis", "procedure,_shortened": "as §2"}, "[6]": {"test_system": "wild oat", "assay": "Test C pre-/postemergence test", "assay_type": "in vivo, Avena fatua", "procedure,_shortened": "as §2"}, "[7]": {"test_system": "Surinam grass", "assay": "Test C pre-/postemergence test", "assay_type": "in vivo, Brachiaria decumbens", "procedure,_shortened": "as §2"}, "[8]": {"test_system": "cocklebur", "assay": "Test C pre-/postemergence test", "assay_type": "in vivo, Xanthium strumarium", "procedure,_shortened": "as §2"}, "[9]": {"test_system": "crabgrass", "assay": "Test C pre-/postemergence test", "assay_type": "in vivo, Digitaria sanguinalis", "procedure,_shortened": "as §2"}, "[10]": {"test_system": "giant foxtail", "assay": "Test C pre-/postemergence test", "assay_type": "in vivo, Setaria faberii", "procedure,_shortened": "as §2"}, "[11]": {"test_system": "johnsongrass", "assay": "Test C pre-/postemergence test", "assay_type": "in vivo, Sorghum halepense", "procedure,_shortened": "as §2"}, "[12]": {"test_system": "kochia", "assay": "Test C pre-/postemergence test", "assay_type": "in vivo, Kochia scoparia", "procedure,_shortened": "as §2"}, "[13]": {"test_system": "lambsquarters", "assay": "Test C pre-/postemergence test", "assay_type": "in vivo, Chenopodium album", "procedure,_shortened": "as §2"}, "[14]": {"test_system": "eastern black nightshade", "assay": "Test C pre-/postemergence test", "assay_type": "in vivo, Solanum ptycanthum", "procedure,_shortened": "as §2"}, "[15]": {"test_system": "common ragweed", "assay": "Test C pre-/postemergence test", "assay_type": "in vivo, Ambrosia elation", "procedure,_shortened": "as §2"}, "[16]": {"test_system": "velvetleaf", "assay": "Test C pre-/postemergence test", "assay_type": "in vivo, Abutilon theophrasti", "procedure,_shortened": "as §2"}, "[17]": {"test_system": "rice", "assay": "Test C flooded paddy test", "assay_type": "in vivo, Oryza sativa", "conditions": "Flood, scale 0 to 100, 0 no effect, 100 complete control, 13 to 15 days", "procedure,_shortened": "(§3)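 Pots were flooded to 3 cm above the soil surface at treatment, compound applied directly to the paddy water, and that depth held throughout. Plants were kept in a greenhouse for 13 to 15 days, then visually rated against untreated controls.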"}, "[18]": {"test_system": "duck salad", "assay": "Test C flooded paddy test", "assay_type": "in vivo, Heteranthera limosa", "conditions": "Flood, scale 0 to 100, 0 no effect, 100 complete control, 13 to 15 days", "procedure,_shortened": "as §3"}, "[19]": {"conditions": "Postemergence, 500 g ai/ha, 0 is no effect, 100 is complete control"}, "[20]": {"conditions": "Preemergence, 125 g ai/ha, 0 no effect, 100 complete control"}, "[21]": {"conditions": "62 g ai/ha, Preemergence, scale 0 to 100"}, "[22]": {"conditions": "125 g ai/ha, preemergence, scale 0 (no effect) to 100 (complete control)"}, "[23]": {"conditions": "Preemergence, 31 g ai/ha, scale 0 to 100 (0 no effect, 100 complete control)"}, "[24]": {"conditions": "preemergence, 250 g ai/ha, scale 0 (no effect) to 100 (complete control)"}}, "data": [{"compound": "CC(c1c(C(F)(F)F)nn(CC(F)(F)F)c1Cl)[S+]([O-])c1cccc[n+]1[O-]", "note": "(stereo not shown) [Compound 46]", "values": [{"measurement": "Plant response rating, Barnyardgrass", "setting": "[1]; Postemergence, 125 g ai/ha", "result": 70}, {"measurement": "Barnyardgrass plant response rating", "setting": "[1]; [19]", "result": 80}, {"measurement": "Barnyardgrass plant response rating", "setting": "[1]; [20]", "result": 80}, {"measurement": "Plant response rating, Barnyardgrass", "setting": "[1]; Preemergence, 500 g ai/ha", "result": 100}, {"measurement": "Plant response rating, Pigweed", "setting": "[2]; Postemergence, 125 g ai/ha", "result": 40}, {"measurement": "Pigweed plant response rating", "setting": "[2]; [19]", "result": 50}, {"measurement": "Pigweed plant response rating", "setting": "[2]; [20]", "result": 10}, {"measurement": "Plant response rating, Pigweed", "setting": "[2]; Preemergence, 500 g ai/ha", "result": 100}, {"measurement": "Plant response rating, Velvetleaf", "setting": "[3]; Postemergence, 125 g ai/ha", "result": 30}, {"measurement": "Velvetleaf plant response rating", "setting": "[3]; [19]", "result": 40}, {"measurement": "Velvetleaf plant response rating", "setting": "[3]; [20]", "result": 0}, {"measurement": "Plant response rating, Velvetleaf", "setting": "[3]; Preemergence, 500 g ai/ha", "result": 50}, {"measurement": "Bromegrass, Downy plant response rating", "setting": "[4]; [21]", "result": 0}, {"measurement": "Bromegrass, Downy plant response rating", "setting": "[4]; [22]", "result": 10}, {"measurement": "Plant response rating, Bromegrass, Downy", "setting": "[4]; [23]", "result": 0}, {"measurement": "Bromegrass, Downy plant response rating", "setting": "[4]; [24]", "result": 15}, {"measurement": "Foxtail, Green plant response rating", "setting": "[5]; [21]", "result": 98}, {"measurement": "Foxtail, Green plant response rating", "setting": "[5]; [22]", "result": 100}, {"measurement": "Plant response rating, Foxtail, Green", "setting": "[5]; [23]", "result": 95}, {"measurement": "Foxtail, Green plant response rating", "setting": "[5]; [24]", "result": 100}, {"measurement": "Oat, Wild plant response rating", "setting": "[6]; [21]", "result": 20}, {"measurement": "Oat, Wild plant response rating", "setting": "[6]; [22]", "result": 20}, {"measurement": "Plant response rating, Oat, Wild", "setting": "[6]; [23]", "result": 0}, {"measurement": "Oat, Wild plant response rating", "setting": "[6]; [24]", "result": 50}, {"measurement": "Surinam Grass plant response rating", "setting": "[7]; [21]", "result": 85}, {"measurement": "Surinam Grass plant response rating", "setting": "[7]; [22]", "result": 100}, {"measurement": "Plant response rating, Surinam Grass", "setting": "[7]; [23]", "result": 85}, {"measurement": "Surinam Grass plant response rating", "setting": "[7]; [24]", "result": 100}, {"measurement": "Cocklebur plant response rating", "setting": "[8]; [21]", "result": 0}, {"measurement": "Cocklebur plant response rating", "setting": "[8]; [22]", "result": 0}, {"measurement": "Plant response rating, Cocklebur", "setting": "[8]; [23]", "result": 0}, {"measurement": "Cocklebur plant response rating", "setting": "[8]; [24]", "result": 10}, {"measurement": "Crabgrass, Large plant response rating", "setting": "[9]; [21]", "result": 100}, {"measurement": "Crabgrass, Large plant response rating", "setting": "[9]; [22]", "result": 100}, {"measurement": "Plant response rating, Crabgrass, Large", "setting": "[9]; [23]", "result": 100}, {"measurement": "Crabgrass, Large plant response rating", "setting": "[9]; [24]", "result": 100}, {"measurement": "Foxtail, Giant plant response rating", "setting": "[10]; [21]", "result": 100}, {"measurement": "Foxtail, Giant plant response rating", "setting": "[10]; [22]", "result": 100}, {"measurement": "Plant response rating, Foxtail, Giant", "setting": "[10]; [23]", "result": 85}, {"measurement": "Foxtail, Giant plant response rating", "setting": "[10]; [24]", "result": 100}, {"measurement": "Johnsongrass plant response rating", "setting": "[11]; [21]", "result": 80}, {"measurement": "Johnsongrass plant response rating", "setting": "[11]; [22]", "result": 90}, {"measurement": "Plant response rating, Johnsongrass", "setting": "[11]; [23]", "result": 40}, {"measurement": "Johnsongrass plant response rating", "setting": "[11]; [24]", "result": 100}, {"measurement": "Kochia plant response rating", "setting": "[12]; [21]", "result": 50}, {"measurement": "Kochia plant response rating", "setting": "[12]; [22]", "result": 100}, {"measurement": "Plant response rating, Kochia", "setting": "[12]; [23]", "result": 50}, {"measurement": "Kochia plant response rating", "setting": "[12]; [24]", "result": 100}, {"measurement": "Lambsquarters plant response rating", "setting": "[13]; [21]", "result": 90}, {"measurement": "Lambsquarters plant response rating", "setting": "[13]; [22]", "result": 100}, {"measurement": "Plant response rating, Lambsquarters", "setting": "[13]; [23]", "result": 0}, {"measurement": "Lambsquarters plant response rating", "setting": "[13]; [24]", "result": 100}, {"measurement": "Nightshade plant response rating", "setting": "[14]; [21]", "result": 100}, {"measurement": "Nightshade plant response rating", "setting": "[14]; [22]", "result": 100}, {"measurement": "Plant response rating, Nightshade", "setting": "[14]; [23]", "result": 80}, {"measurement": "Ragweed plant response rating", "setting": "[15]; [21]", "result": 0}, {"measurement": "Ragweed plant response rating", "setting": "[15]; [22]", "result": 5}, {"measurement": "Plant response rating, Ragweed", "setting": "[15]; [23]", "result": 0}, {"measurement": "Ragweed plant response rating", "setting": "[15]; [24]", "result": 60}, {"measurement": "Velvetleaf plant response rating", "setting": "[16]; [21]", "result": 0}, {"measurement": "Velvetleaf plant response rating", "setting": "[16]; [22]", "result": 0}, {"measurement": "Plant response rating, Velvetleaf", "setting": "[16]; [23]", "result": 0}, {"measurement": "Velvetleaf plant response rating", "setting": "[16]; [24]", "result": 60}, {"measurement": "Plant response rating, Rice", "setting": "[17]; 62 g ai/ha", "result": 10}, {"measurement": "Plant response rating, Rice", "setting": "[17]; 250 g ai/ha", "result": 55}, {"measurement": "Plant response rating, Ducksalad", "setting": "[18]; 62 g ai/ha", "result": 10}, {"measurement": "Plant response rating, Ducksalad", "setting": "[18]; 250 g ai/ha", "result": 20}]}]}
